Measurements from patent US11570992B2, “Bicyclic compounds” (BASF SE, priority 2016, dated 2023).

Assays:
Type in all cases: in vivo
[1] = test system: boll weevil (Anthonomus grandis); assay: Boll weevil test, 96-well microtiter plates with insect diet and eggs; conditions: 120 h, egg and larval mortality after 5 days, read-out: mortality in comparison with untreated controls
Description: Boll Weevil (Anthonomus gandis)
For evaluating control of boll weevil (Anthonomus grandis) the test unit consisted of 96-well-microtiter plates containing an insect diet and 5-10 A. grandis eggs.
The compounds were formulated using a solution containing 75% v/v water and 25% v/v DMSO. Different concentrations of formulated compounds were sprayed onto the insect diet at 5 μl, using a custom built micro atomizer, at two replications.
After application, microtiter plates were incubated at about 25±1° C. and about 75±5% relative humidity for 5 days. Egg and larval mortality was then visually assessed.

[2] = test system: Diamond Back Moth (Plutella xylostella); assay: Diamond back moth test, dipped cabbage leaves; conditions: 3rd instar larvae, 72 hours after treatment, read-out: mortality in comparison with untreated controls
Description: Diamond Back Moth (Plutella xylostella)
The active compound is dissolved at the desired concentration in a mixture of 1:1 (vol:vol) distilled water:acetone. Surfactant (Kinetic® HV) is added at a rate of 0.01% (vol/vol). The test solution is prepared at the day of use.
Leaves of cabbage were dipped in test solution and air-dried. Treated leaves were placed in petri dishes lined with moist filter paper and inoculated with ten 3rd instar larvae. Mortality was recorded 72 hours after treatment. Feeding damages were also recorded using a scale of 0-100%.

[3] = test system: vetch aphid (Megoura viciae); assay: Vetch aphid test, broad bean leaf disks in 24-well plates; conditions: foliar, 120 h, 5 days, read-out: mortality in comparison with untreated controls
Description: Vetch Aphid (Megoura viciae)
For evaluating control of vetch aphid (Megoura viciae) through contact or systemic means the test unit consisted of 24-well-microtiter plates containing broad bean leaf disks.
The compounds were formulated using a solution containing 75% v/v water and 25% v/v DMSO. Different concentrations of formulated compounds were sprayed onto the leaf disks at 2.5 μl, using a custom built micro atomizer, at two replications.
After application, the leaf disks were air-dried and 5-8 adult aphids placed on the leaf disks inside the microtiter plate wells. The aphids were then allowed to suck on the treated leaf disks and incubated at about 23±1° C. and about 50±5% relative humidity for 5 days. Aphid mortality and fecundity was then visually assessed.

## Cn1c(C(F)(F)F)cc2nc(-c3ccccc3Cl)cn2c1=O [Example C-1, 2-(2-chlorophenyl)-6-methyl-7-(trifluoromethyl)imidazo[1,2-c]pyrimidin-5-one]
[1]
  mortality at 800 ppm: > 75%

## CCS(=O)(=O)c1cccnc1-c1nc2cc(C(F)(F)F)cc(=O)n2n1C [Example C-4, 2-(3-ethylsulfonyl-2-pyridyl)-3-methyl-7-(trifluoromethyl)-[1,2,4]triazolo[1,5-a]pyridin-5-one]
[2]
  mortality at 300 ppm: > 75%
[3]
  mortality at 800 ppm: > 75%
